Experimental data taken from US8686224B2, “Plant defense signal peptides” (priority 2005, dated 2014).
“Also recorded” adds a separate entry of the source.

How the values were obtained:
[1] = system: PDF1.2 and PR-1 gene expression; experiment: Spraying of four-week-old soil-grown plants, qRT-PCR of PDF1.2 and PR-1; format: in vivo, Arabidopsis thaliana
Text: […]1 and […]2 mutants are unable to respond to AtPEP1. To further examine the importance of […]1 and […]2 in AtPep1 signaling, the expression level of WRKY transcription factor genes, WRKY22, WRKY29, WRKY33. WRKY53 and WRKY55, were monitored by qRT-PCR after supplying AtPep1 to wild type Arabidopsis and T-DNA insertional mutants of […]1 and […]2. These WRKY genes were reported to be induced by the fungal PAMP, chitin (Wan et al., Plant Cell 20: 471-481, 2008), and the bacterial PAMPs, […] et al., Cell 125:749-760, 2006). […] In the double mutants, […] […] We also examined the effect of supplying AtPep1 to the double mutants on the expression of the antimicrobial protein genes, defensin (PDF1.2) and pathogenesis related protein (PR-1) […] peptides are known to induced these genes (Huffaker and Ryan, Proc. Natl. Acad. Sci. USA 104: 10732-10736, 2007). Since the expression levels of PDF1.2 and PR-1 gene in Arabidopsis seedlings grown in liquid medium were already high, the method of supplying AtPep1 was changed. Four-week-old Arabidopsis plants grown in soil were sprayed with 1 μM AtPep1 in 0.01% Silwet L-77, and subjected to qRT-PCR analysis after 6 hours.

[2] = system: Arabidopsis suspension cultured cells; experiment: Alkalinization assay with Arabidopsis suspension cultured cells; format: cell-based, Arabidopsis thaliana; settings: Arabidopsis suspension cultured cells, pH of media after 20 min
Procedure: For the alkalinization assay, cells suspensions are grown in a volume of 40 ml in a 125 ml flask. Tobacco and Arabidopsis cells are typically grown for 3-5 days before use. Tomato cells are typically grown for 4-7 days before use. Soybean cells are generally grown for 3-7 days before use. Preferably, cells are in mid to log or log phase when they are to be used for the alkalinization assay. A 1 ml pipette tip with the end cut off (to prevent clogging of the tip with the cells) is used to aliquot 1 ml of the cells from the suspension into a well in a 24-well culture cluster plate. The flask is swirled between aliquots to ensure that the cells remain evenly dispersed throughout the cell suspension and an roughly equivalent number of cells is provided to each well. The plate(s) are then shaken at 160 rpm for 1 hour. Small aliquots ([…]) of extracted peptide fractions are then added to the wells. After 20 min, the pH of the cell media is measured and recorded.
Alkalinization Assay. Arabidopsis suspension cells were grown with shaking in the dark in 125 mL flasks, using 40 mL NT media as previously described (Pearce et al. Proc. Natl. Acad. Sci. USA 98:12843-12847, 2001). The cells were transferred weekly (2.5 mL) and used for assays 3-5 days after transfer. One mL aliquots of cells were transferred to wells of 24-well culture plates and allowed to equilibrate for one hour while agitated on a rotary shaker at 160 rpm. Aliquots of 1-10 μL from extracts or fractions eluted from HPLC columns were added to cells and the pH of the media was monitored after 20 min.
Alkalinization assay. Medium alkalinization activity of Arabidopsis suspension cultured cells by AtPep1 analogs was analyzed as previously described for systemin (Pearce et al., Science 253:895-897, 1991), RALF (Pearce et al. Proc. Natl. Acad. Sci. USA 98:12843-12847, 2001), HypSys peptides (Pearce and Ryan. J. Biol. Chem. 278:30044-30050, 2003; Pearce et al., Nature 411:817-820, 2001), and AtPep1 (supra). The alkalinization activity of azido-Cys-AtPep1 were carried out after incubation the analog with cells in darkness for 10 min, when the pH was recorded.
Analogs of AtPep1 from the C-terminus of AtPep1 were synthesized and assayed in the alkalinization assay. One mL aliquots of 4 day old Arabidopsis cells were allowed to equilibrate on an orbital shaker at 180 rpm for one hour. A 10 μL aliquot of each peptide solution was added to the cells. Peptide concentrations of 0.25 nM, 2.5 nM, and 25 nM were tested. After 20 min, the pH of the media was recorded.
The 15-mer from the carboxy-terminus of AtPep1 ([…] (SEQ ID NO: 78)) was substituted with alanine at each position to assess which amino acids were necessary for the alkalinizing activity. […] The set of substituted 15-mer peptides was assayed using four-day-old Arabidopsis cells. […] of each peptide (2.5 pmoles) was added to 1 ml of cells to make a final concentration of 2.5 nM. After 20 min, the pH of the media was recorded. The data is the average of three separate experiments.

[3] = sprayed 1 μM in 0.01% Silwet L-77, 6 hours, wild type

## H-ATKVKAKQRGKEKVSSGRPGQHN-OH [AtPep1]
[1]; [3]
  induction of PDF1.2: 30 fold
  induction of PR-1: 60 fold
[1]; sprayed 1 μM, 6 hours
  induction of PDF1.2 and PR-1 in the double mutants: not induced
[2]
  activity in the alkalinization assay: at sub-nanomolar concentrations, to cause an alkalinization response; also recorded: as active as the native AtPep1; also recorded: identical activities as the native peptides
[2]; read-out: half-maximal activity in the alkalinization assay
  EC50: 0.25 nM
